Results as given in patent US7935714B2, “Compositions for sleeping disorders” (Bright Future Pharmaceutical Laboratories, priority 2004, dated 2011).

Tested on: male Wistar rats
Experiment: Telemetry EEG study of NREM sleep (sleep latency and quality) in freely moving male Wistar rats
Type: in vivo
Conditions: for sleep latency / NREM sleep during the second hour following treatment / NREM sleep within the first hour following treatment: zolpidem
Description: Telemetric EEG, activity and temperature monitors were surgically implanted sub-coetaneously onto the lower backs of male Wistar rats, under ketamie and xyalsine (75/10 mg/kg, i.p.) anaesthesia. A skin incision was made above the scull and the transmitter tunnelled subcutaneously from the neck to the lower back with blunted scissors. The EEG leads were placed into two 0.5 mm holes that were drilled stererotaxically 2 mm anterior to Lambda and 1 mm to the left and right of centre, so that contact was made with the durra, and fixed with quick drying glue and reinforced with dental cement. The incision was then closed with 4-0 silk suture and post operative temgesic applied for pain relief. Following a 4 week recovery and acclimatization period in individually housed ventilated cages (12 hour light/12 hour dark cycle 20-25° C.), the rats were orally treated with either test compounds, positive controls or vehicle 45-30 min prior commencement of their light cycle (sleeping period). A Latin square dosing regiment was used where each rat received each of the drugs tested in random order with 4 days clearance time between each dosing. EEG waveforms were analysed using a power spectral analysis of each 5 second epoch and scored manually into % duration of NREM sleep for each hour over a 12 hour period. […] Data were analysed using Two-way ANOVA versus vehicle treatment (*p<0.05, n=7).

[1] = p.o., zopiclone 5 mg/kg, Compound Mixture 50 mg/kg, compared to vehicle
[2] = p.o., zopiclone 5 mg/kg, Compound Mixture 50 mg/kg, versus vehicle

SMILES	NREM sleep during the remainder of the sleep period (5 mg/kg p.o., compared to vehicle)	sleep latency [1]	NREM sleep during the second hour following treatment [2]	NREM sleep within the first hour following treatment [2]	sleep quality during the 6th hour of sleep (5 mg/kg p.o., versus vehicle)	NREM sleep duration during the 8th hour [2]
Cc1ccc(-c2nc3ccc(C)cn3c2CC(=O)N(C)C)cc1 [zolpidem]	failed to significantly improve NREM sleep	significantly reduce sleep latency	not significantly different from vehicle treatment	significantly increased	–	–
CN1CCN(C(=O)OC2c3nccnc3C(=O)N2c2ccc(Cl)cn2)CC1 (stereo not drawn) [zopiclone]	–	significantly reduce sleep latency	not significantly different from vehicle treatment	significantly increased	negative effect on sleep quality	significantly improved
